Results reported in ChEMBL document CHEMBL6127139, “Lysine-Targeted Covalent Inhibitors of PI3Kδ Synthesis and Screening by In Situ Interaction Upgradation” (J Med Chem, 2024).
Active and inactive are the calls of the source. No cut-off for these calls is given here.

Tests used:
[1] = test system: SU-DHL-6; experiment: Induction of apoptosis in human SU-DHL-6 cells assessed as early apoptotic cells at 1 uM incubated for 48 hrs by Annexin V-FITC/PI staining based flow cytometric analysis (reference value: 5.02 %); format: functional
[2] = Selectivity index, ratio of IC50 for inhibition of recombinant PI3Kalpha (unknown origin) using PIP2:3PS as substrate to IC50 for inhibition of recombinant PI3Kdelta (unknown origin) using PIP2:3PS as substrate
[3] = test system: Pfeiffer; experiment: Antitumor activity against human Pfeiffer cells xenografted in male nude mouse assessed as tumor growth inhibition at 5 mg/kg/day, po administered for 14 days relative to control; format: functional; settings: 336 h, time 14 day, read-out: TGI
[4] = target: T1, Phosphatidylinositol 4,5-bisphosphate 3-kinase catalytic subunit delta isoform (Homo sapiens) (UniProt O00329); experiment: Binding affinity to PI3Kdelta in human SU-DHL-6 cells preincubated for 1 hrs followed by (S)-phenyl 5-(4-((1-(1-(3-azidopropanoyl)piperidine-4-carbonyl)pyrrolidin-3-yl)amino)pyrido[3,2-d]pyrimidin-6-yl)-2-methoxynicotinate addition and measured after 2 hrs by DBCO-Cy3 based SDS-PAGE analysis; format: cell-based; settings: time 3.0 hrs
T1 sequence (whole entry): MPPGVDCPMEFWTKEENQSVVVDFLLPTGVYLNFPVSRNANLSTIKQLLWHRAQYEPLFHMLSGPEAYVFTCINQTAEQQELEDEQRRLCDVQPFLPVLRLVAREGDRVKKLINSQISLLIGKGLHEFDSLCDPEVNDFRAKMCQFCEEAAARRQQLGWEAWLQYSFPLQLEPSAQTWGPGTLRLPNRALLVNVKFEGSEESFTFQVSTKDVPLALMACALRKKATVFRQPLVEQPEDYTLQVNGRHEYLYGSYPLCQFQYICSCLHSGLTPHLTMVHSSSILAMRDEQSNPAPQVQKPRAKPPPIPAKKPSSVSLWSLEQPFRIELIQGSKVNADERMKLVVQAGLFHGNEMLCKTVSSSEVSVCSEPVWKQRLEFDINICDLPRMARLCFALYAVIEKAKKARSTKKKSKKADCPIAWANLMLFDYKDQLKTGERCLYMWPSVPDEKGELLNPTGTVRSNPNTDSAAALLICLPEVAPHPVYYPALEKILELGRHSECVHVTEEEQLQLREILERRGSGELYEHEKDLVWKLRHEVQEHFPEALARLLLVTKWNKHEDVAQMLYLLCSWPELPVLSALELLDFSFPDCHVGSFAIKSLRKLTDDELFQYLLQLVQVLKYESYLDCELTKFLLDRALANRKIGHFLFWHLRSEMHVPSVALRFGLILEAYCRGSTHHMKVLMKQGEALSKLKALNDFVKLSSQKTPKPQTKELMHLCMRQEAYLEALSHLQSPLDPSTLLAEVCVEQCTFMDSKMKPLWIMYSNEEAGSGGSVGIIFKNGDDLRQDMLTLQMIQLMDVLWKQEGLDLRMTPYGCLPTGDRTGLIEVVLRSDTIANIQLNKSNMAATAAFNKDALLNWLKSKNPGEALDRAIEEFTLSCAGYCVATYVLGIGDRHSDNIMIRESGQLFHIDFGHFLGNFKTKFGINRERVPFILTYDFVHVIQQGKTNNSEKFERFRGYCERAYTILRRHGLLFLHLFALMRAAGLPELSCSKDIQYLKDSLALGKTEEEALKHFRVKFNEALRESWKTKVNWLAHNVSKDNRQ

[5] = Toxicity in male nude mouse xenografted with human SU-DHL-6 cells assessed as change in body weight at 5 to 30 mg/kg/day, po administered for 14 days; format: organism-based; settings: in vivo, 336 h, dose 5-30 mg/kg/day, time 14 day
[6] = test system: SU-DHL-6; experiment: Antiproliferative activity against human SU-DHL-6 cells assessed as inhibition of cell viability preincubated for 12 hrs followed by compound washout and measured after 60 hrs by MTT assay; format: functional, cell-based
[7] = test system: SU-DHL-6; experiment: Induction of cell cycle arrest in human SU-DHL-6 cells assessed as increase in G0/G1 phase cells incubated for 24 hrs by PI staining based flow cytometric analysis; format: functional; settings: dose 1-100 nM
[8] = test system: SU-DHL-6; experiment: Induction of apoptosis in human SU-DHL-6 cells assessed as late apoptotic cells at 1 uM incubated for 48 hrs by Annexin V-FITC/PI staining based flow cytometric analysis (reference value: 4.12 %); format: functional
[9] = Growth inhibition of PI3Kdelta-overexpressing human SU-DHL-6 cells incubated for 72 hrs by MTT assay; format: functional
[10] = target: Phosphatidylinositol 4,5-bisphosphate 3-kinase catalytic subunit gamma isoform (Homo sapiens, UniProt P48736); experiment: Inhibition of recombinant PI3Kgamma (unknown origin) using PIP2:3PS as substrate preincubated for 20 mins followed by ATP addition and measured after 1 hrs by ADP-Glo reagent based assay
Chain of Phosphatidylinositol 4,5-bisphosphate 3-kinase catalytic subunit gamma isoform (P48736 whole entry, canonical isoform): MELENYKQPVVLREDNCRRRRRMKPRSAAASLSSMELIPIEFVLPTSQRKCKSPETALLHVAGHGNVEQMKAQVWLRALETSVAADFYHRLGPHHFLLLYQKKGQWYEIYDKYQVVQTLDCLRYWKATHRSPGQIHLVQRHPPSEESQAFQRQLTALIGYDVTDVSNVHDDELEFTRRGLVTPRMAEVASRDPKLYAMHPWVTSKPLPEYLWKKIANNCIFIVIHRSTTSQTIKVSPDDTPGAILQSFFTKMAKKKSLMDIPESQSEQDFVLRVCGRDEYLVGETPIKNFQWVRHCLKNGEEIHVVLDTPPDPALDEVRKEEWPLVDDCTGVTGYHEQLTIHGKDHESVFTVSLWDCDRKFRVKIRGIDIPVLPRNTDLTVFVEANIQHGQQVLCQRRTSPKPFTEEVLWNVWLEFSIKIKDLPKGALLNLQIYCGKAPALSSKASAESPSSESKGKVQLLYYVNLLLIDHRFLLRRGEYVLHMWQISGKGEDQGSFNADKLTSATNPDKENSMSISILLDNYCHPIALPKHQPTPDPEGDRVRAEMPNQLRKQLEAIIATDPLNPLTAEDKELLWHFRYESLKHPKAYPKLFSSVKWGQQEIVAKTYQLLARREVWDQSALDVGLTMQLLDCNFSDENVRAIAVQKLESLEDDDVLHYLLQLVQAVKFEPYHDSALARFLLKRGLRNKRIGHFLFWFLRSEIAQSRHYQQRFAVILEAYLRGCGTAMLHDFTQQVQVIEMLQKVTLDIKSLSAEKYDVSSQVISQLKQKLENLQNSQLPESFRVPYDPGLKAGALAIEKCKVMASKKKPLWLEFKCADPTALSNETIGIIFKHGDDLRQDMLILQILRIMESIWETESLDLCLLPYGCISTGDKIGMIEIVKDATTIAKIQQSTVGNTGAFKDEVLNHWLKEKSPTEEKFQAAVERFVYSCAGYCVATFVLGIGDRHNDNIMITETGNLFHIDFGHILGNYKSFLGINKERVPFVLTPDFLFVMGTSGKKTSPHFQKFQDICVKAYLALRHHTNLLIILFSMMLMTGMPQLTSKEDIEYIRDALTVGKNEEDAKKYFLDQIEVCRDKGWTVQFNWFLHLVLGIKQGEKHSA

[11] = Toxicity in male nude mouse xenografted with human Pfeiffer cells assessed as change in body weight at 5 to 30 mg/kg/day, po administered for 14 days; format: organism-based; settings: in vivo, 336 h, dose 5-30 mg/kg/day, time 14 day
[12] = test system: SU-DHL-6; experiment: Induction of apoptosis in human SU-DHL-6 cells assessed as necrotic cells at 0.01 uM incubated for 48 hrs by Annexin V-FITC/PI staining based flow cytometric analysis (reference value: 1.05 %); format: functional
[13] = test system: SU-DHL-6; experiment: Induction of apoptosis in human SU-DHL-6 cells assessed as early apoptotic cells at 0.1 uM incubated for 48 hrs by Annexin V-FITC/PI staining based flow cytometric analysis (reference value: 5.02 %); format: functional
[14] = test system: HCT-116; experiment: Growth inhibition of human HCT-116 cells incubated for 72 hrs by MTT assay; format: functional
[15] = test system: SU-DHL-6; experiment: Inhibition of AKT phosphorylation in human SU-DHL-6 cells incubated for 24 hrs by Western blot analysis; format: cell-based; settings: dose 10-1000 nM
[16] = test system: Pfeiffer; experiment: Antitumor activity against human Pfeiffer cells xenografted in male nude mouse assessed as tumor growth inhibition at 30 mg/kg/day, po administered for 14 days relative to control; format: functional; settings: 336 h, time 14 day, read-out: TGI
[17] = test system: SU-DHL-6; experiment: Induction of apoptosis in human SU-DHL-6 cells assessed as viable cells at 0.1 uM incubated for 48 hrs by Annexin V-FITC/PI staining based flow cytometric analysis (reference value: 89.81 %); format: functional; settings: read-out: Activity
[18] = test system: SU-DHL-6; experiment: Induction of apoptosis in human SU-DHL-6 cells assessed as viable cells at 1 uM incubated for 48 hrs by Annexin V-FITC/PI staining based flow cytometric analysis (reference value: 89.81 %); format: functional; settings: read-out: Activity
[19] = test system: SU-DHL-6; experiment: Potency index, ratio of idelalisib GI50 to test compound GI50 for growth inhibition of PI3Kdelta-overexpressing human SU-DHL-6 cells incubated for 72 hrs by MTT assay; format: functional
[20] = test system: SU-DHL-6; experiment: Antitumor activity against human SU-DHL-6 cells xenografted in male nude mouse assessed as tumor growth inhibition at 30 mg/kg/day, po administered for 14 days relative to control; format: functional; settings: SU-DHL-6, 336 h, time 14 day, read-out: TGI
[21] = test system: SU-DHL-6; experiment: Induction of apoptosis in human SU-DHL-6 cells assessed as necrotic cells at 1 uM incubated for 48 hrs by Annexin V-FITC/PI staining based flow cytometric analysis (reference value: 1.05 %); format: functional
[22] = test system: SU-DHL-6; experiment: Antitumor activity against human SU-DHL-6 cells xenografted in male nude mouse assessed as tumor growth inhibition at 5 mg/kg/day, po administered for 14 days relative to control; format: functional; settings: SU-DHL-6, 336 h, time 14 day, read-out: TGI

Q: With COc1ncc(-c2ccc3ncnc(N[C@H]4CCN(C(=O)C5CCOCC5)C4)c3n2)cc1C(=O)Oc1ccccc1 as the molecule, how does the Activity [1] read?
A: The Activity was 63.74%.

Q: And the Ratio IC50 [2]?
A: The Ratio IC50 was over 1000.

Q: What about the inhibition in vivo at 5 mg/kg/day [3] of the same molecule?
A: Its inhibition in vivo at 5 mg/kg/day is 44%.

Q: What about the Activity [4] of the same molecule?
A: Its Activity is “Active”.

Q: And the Activity [5]?
A: Its Activity is “Non-Toxic”.

Q: What about the Activity [6] of the same molecule?
A: The Activity was “Active”.

Q: And the Activity [7]?
A: The Activity was “Dose-Dependent Effect”.

Q: What about the Activity [8] of the same molecule?
A: Its Activity is 20.35%.

Q: And the GI50 [9]?
A: Its GI50 is 2 nM.

Q: And the IC50 [10]?
A: Its IC50 is 94 nM.

Q: What about the Activity [11] of the same molecule?
A: Its Activity is “Non-Toxic”.

Q: What about the Activity [12] of the same molecule?
A: Its Activity is 0.52%.

Q: And the Activity [13]?
A: Its Activity is 17.68%.

Q: What about the GI50 [14] of the same molecule?
A: The GI50 was 1350 nM.

Q: And the inhibition [15]?
A: Its inhibition is “Dose-Dependent Effect”.

Q: And the inhibition in vivo at 30 mg/kg/day [16]?
A: The inhibition in vivo at 30 mg/kg/day was 61%.

Q: What about the viability at 0.1 µM [17] of the same molecule?
A: The viability at 0.1 µM was 65.3%.

Q: And the viability at 1 µM [18]?
A: Its viability at 1 µM is 14.2%.

Q: What about the RatioGI50 [19] of the same molecule?
A: The RatioGI50 was about 10.

Q: And the inhibition in vivo at 30 mg/kg/day [20]?
A: Its inhibition in vivo at 30 mg/kg/day is 95%.

Q: What about the Activity [21] of the same molecule?
A: Its Activity is 1.57%.

Q: And the inhibition in vivo at 5 mg/kg/day [22]?
A: Its inhibition in vivo at 5 mg/kg/day is 84%.
